One experiment has as its system Hsp70. Briefly: Hsp70 turnover (pulse-chase) in HepG2 cells. The experiment is classed as cell-based, human. How it is done: FIGS. 4A-4B: Effects of ALLN on Hsp70 turnover and synthesis rates in HepG2 cells. Confluent culture dishes were preincubated for 4 hours with serum-free MEM containing either 1.5% BSA alone (Control) or BSA plus 40 μg/ml of ALLN (ALLN). (A) The preincubated cells were radiolabeled with 3H-leucine (150 μCi/ml) in serum-free, leucine-free medium with/without ALLN for 20 min., washed 3 times with medium free of isotope and then chased in serum-free medium containing BSA with/without ALLN for up to 20 hours. At the indicated time points, cells were harvested and lysed. Samples were immediately stored in a −80° C. freezer. Immunoprecipitation of Hsp70 was performed as described in FIG. 1. […]
FIGS. 8A-8C: Effects of ALLN on Hsp70 synthesis and turnover rates in HepG2 cells. […] Immunoprecipitates were analyzed on SDS-PAGE and fluorography (A) and also aliquoted for scintillation counting (B). […]
Since ALLN is a cysteine protease inhibitor, the possibility that protection of Hsp70 from proteolytic degradation accounted for the sharp increase in Hsp70 induced by ALLN was tested (Rock, et al., 1994; Ward, et al., 1995; Hiwasa, et al., 1990; Inoue, et al., 1991; and Sakata, et al., 1993). To determine whether ALLN stabilizes Hsp70, the turnover rate of radiolabeled Hsp70 in the presence or absence of ALLN (40 μg/ml) was measured in a pulse-chase experiment. […]

For a further experiment, the system named is hsp70, i.e. hsp72, mRNA. The experiment in a line: Northern blot of hsp70 (hsp72) mRNA in HepG2 cells. The experiment is classed as cell-based, human. Conditions: ALLN 40 μg/ml, 4 hours at 37° C. How it is done:
After 4 hours treatment at 37° C., cells were harvested. (B). […] The total RNA was prepared, and equal amounts of the samples were loaded and run on a 1% formaldehyde-agarose gel, blotted onto a nylon membrane, and subsequently hybridized with specific synthetic oligonucleotide probes for hsp70 mRNA as described under Experimental Details. The position of 28S and 18S rRNA are shown for reference.
Equal amounts of tRNA samples (10 μg) were size-fractionated on a 1% agarose-formaldehyde gel according to the methods described (Maniatis, et al., 1982) and transferred to a piece of QIAGEN plus nylon membrane. To determine loading and transfer efficiency, RNA was stained with ethidium bromide before and after transfer. The membrane was baked for 30 min. at 80° C. in vacuo (a vacuum) followed by UV cross-linking. It was then incubated for 4 hours at 65° C. in a prehybridization mixture containing 10% dextran sulfate, 1% SDS, 1M sodium chloride, 50 mM Tris-HCl (pH 7.5) and 100 μg/ml denatured salmon sperm DNA. […] The membrane was then washed four times with 2×SSC, 0.1% SDS at room temperature, one time at 65° C. for 30 min., and one time at room temperature again for 5 min., and finally rinsed with 2×SSC at room temperature.

Structures are written as SMILES. Square brackets hold non-standard residues; d marks the D form. Peptide text beside a SMILES is read from it. Nle = CCCC[C@H](N)C(=O)O

For the molecule `CCCC[C@@H](C=O)NC(=O)[C@H](CC(C)C)NC(=O)[C@H](CC(C)C)NC(C)=O` [ALLN, N-acetyl-leucyl-leucyl-norleucinal] (Ac-Leu-Leu-[Nle]-aldehyde), the “increase in the half-life of Hsp70” value in the experiment on Hsp70 (ALLN 40 μg/ml vs without ALLN) was 3-4 fold. Besides, the “half life of newly synthesized Hsp70 in the presence of ALLN” value with Hsp70 (ALLN 40 μg/ml, pulse-chase) was “about 6 hours”. Besides, the “amount of hsp70, i.e. hsp72, mRNA” value with hsp70, i.e. hsp72, mRNA is listed as “increased dramatically”.
